Literature values in US20150157714A1, “IMPLEMENTATION OF NON-PATHOGENIC BIOLUMINESCENT BACTERIA AS A SUB-MICRON LIGHT EMITTING SOURCE FOR PHOTO-DYNAMIC THERAPY IN THE LUNGS” (priority 2013, published 2015).

Tested on: not given
Settings: FIG. 1, representative spectral curve

Row | Molecule | spectral curve runs to wavelength | spectral curve starts at wavelength | spectral peak of emitted light
1 | Wild-type Firefly luciferase (FFluc): Wild-type Firefly luciferase from Photinus pyralis, uses D-luciferin, ATP dependent | about 680 nm | about 460 nm | about 557 nm
2 | Mutated Firefly luciferase S284T: mutated firefly luciferase S284T | about 720 nm | about 520 nm | about 630 nm

Tested on: Multidrug-resistant Pseudomonas aeruginosa
Settings: 635 nm light

Row | Molecule | susceptibility to photosensitizer and light
3 | CN(C)c1ccc2nc3ccc(=[N+](C)C)cc-3sc2c1 [Methylene Blue] | susceptibility

Tested on: methicillin-resistant Staphylococcus aureus (MRSA)
Settings: with 632.8 nm light

Row | Molecule | eradication of MRSA
4 | Cc1cc2nc3ccc(N(C)C)cc3[s+]c2cc1N.[Cl-] [Toluidine Blue] | eradicate

Tested on: not given
Settings: absorption spectra wavelengths for photochemical interactions

Row | Molecule | Spectral Absorption Ranges and Peaks
5 | O=C([O-])c1ccccc1-c1c2cc(Br)c(=O)c(Br)c-2oc2c(Br)c([O-])c(Br)cc12.[Na+].[Na+] [Eosin Y] | 490-530 nm
6 | CN(C)c1ccc(C(=C2C=CC(=[N+](C)C)C=C2)c2ccc([N+](C)(C)C)cc2)cc1.[Cl-].[Cl-] [Methyl Green] | 560+ nm
7 | O=C([O-])c1c(Cl)c(Cl)c(Cl)c(Cl)c1-c1c2cc(I)c(=O)c(I)c-2oc2c(I)c([O-])c(I)cc12.[Na+].[Na+] [Rose bengal] | 548 nm
8 | O=S(=O)(O)c1cc(S(=O)(=O)O)c2c(/N=N/c3ccccc3)c(O)ccc2c1 [Orange G] | 450-510 nm
9 | O.O=C([O-])c1ccccc1-c1c2cc(I)c(=O)c(I)c-2oc2c(I)c([O-])c(I)cc12.[Na+].[Na+] [Erythrosin B] | 510-540 nm
10 | Nickel 5,10-bis-acrylate etioporphyrin I | 580 nm
11 | Luxol Fast Blue | 500-640 nm
12 | CN(C)c1ccc(C(=C2C=CC(=[N+](C)C)C=C2)c2c(O)c(S(=O)(=O)[O-])cc3cc(S(=O)(=O)[O-])ccc23)cc1.[Na+] [Lissamine green] | 633 nm
13 | Cc1c(C(=O)O)c(O)cc2c1C(=O)c1c(O)c(C3O[C@H](CO)[C@@H](O)[C@H](O)[C@H]3O)c(O)c(O)c1C2=O (stereo in doubt) [Carmine] | 500-570 nm
14 | C=Cc1c(C)c2cc3nc(c(CC(=O)N[C@@H](CC(=O)O)C(=O)O)c4[nH]c(cc5nc(cc1[nH]2)C(C)=C5CC)c(C)c4C(=O)O)[C@@H](CCC(=O)O)[C@@H]3C [Talaporfin (LS11, MACE, Npe6), Talaporfin] | 660 nm
15 | Silicon phthalocyanine [Silicon phthalocyanine (Pc4)] | 675 nm
16 | CCN(Cc1cccc(S(=O)(=O)O)c1)c1ccc(C(=C2C=CC(=[N+](CC)Cc3cccc(S(=O)(=O)O)c3)C=C2)c2ccc(S(=O)(=O)O)cc2)cc1.[Na+].[Na+] [Light Green SF] | 590+ nm
17 | CCOC(=O)C1=Cc2c3nc(cc4nc(cc5[n-]c(cc6[n-]c2c(C)c6CC)c(C)c5CC)C(C)=C4CC)[C@@H](C)[C@]13CC.[Cl-].[Cl-].[Sn] (racemic) [Tin etiopurpurin] | 660 nm
18 | CCN(Cc1cccc(S(=O)(=O)[O-])c1)c1ccc(C(=C2C=CC(=[N+](CC)Cc3cccc(S(=O)(=O)[O-])c3)C=C2)c2ccccc2S(=O)(=O)[O-])cc1.[Na+].[Na+] [Erioglaucine disodium salt] | 629 nm
19 | Cc1cc2nc3ccc(N(C)C)cc3[s+]c2cc1N.[Cl-] [Toluidine Blue] | 560+ nm
20 | Cc1cc2nc3ccc(N(C)C)cc3nc2cc1N.Cl [Neutral Red] | 480-570 nm
21 | CC(=O)Nc1ccc2nc3c4ccccc4c(=N)cc-3oc2c1.Cl [Darrow Red] | 450-550 nm
22 | O=C1/C(=C2\Nc3ccc(S(=O)(=O)[O-])cc3C2=O)Nc2ccc(S(=O)(=O)[O-])cc21.[Na+].[Na+] [Indigo Carmine] | 608 nm
23 | Aniline Blue | 550-620 nm
24 | BPD-ma | 689 nm
25 | Brilliant Cresyl Blue | 550+ nm
26 | Cc1cc2nc3cc(C)c(N)cc3[n+](-c3ccccc3)c2cc1N.[Cl-] [Safranin O] | 470-550 nm
27 | NCC(=O)CCC(=O)O [ALA] | 635 nm
28 | CN(C)c1ccc2nc3ccc(=[N+](C)C)cc-3sc2c1 [Methylene Blue] | 590+ nm
29 | O=C([O-])C1=NN(c2ccc(S(=O)(=O)[O-])cc2)C(=O)C1N=Nc1ccc(S(=O)(=O)[O-])cc1.[Na+].[Na+].[Na+] (stereo not drawn) [Tartrazine] | 400-460 nm
30 | Acid Fuchsin | 530-560 nm

Row | Molecule | Spectral Absorption Ranges and Peaks
31 | CNc1ccc2nc3ccc(N)cc3[s+]c2c1.[Cl-] [Azure C] | 580-640 nm
32 | O=S(=O)([O-])c1cc(S(=O)(=O)[O-])c2c(N=Nc3ccc(S(=O)(=O)[O-])c4ccccc34)c(O)ccc2c1.[Na+].[Na+].[Na+] [Brilliant Scarlet 4R] | 503 nm
33 | CCOC(=O)c1ccccc1-c1c2cc(Br)c(=O)c(Br)c-2oc2c(Br)c([O-])c(Br)cc12.[K+] [Ethyl Eosin] | 530-550 nm
34 | Cc1ccccc1/N=N/c1ccc(/N=N/c2c(O)ccc3ccccc23)c(C)c1 [Sudan IV] | 470-580 nm
35 | Phthalocyanine-4 | 670 nm
36 | O=C([O-])c1c(Cl)c(Cl)c(Cl)c(Cl)c1-c1c2cc(Br)c(=O)c(Br)c-2oc2c(Br)c([O-])c(Br)cc12.[Na+].[Na+] [Phloxine B] | 520+ nm
37 | Sudan Red | 450-590 nm
38 | Basic Fuchsin | 520-570 nm
39 | Cc1cc2nc3c(=O)[nH]c(=O)nc-3n(C[C@H](O)[C@H](O)[C@H](O)COP(=O)([O-])O)c2cc1C.[Na+] [Riboflavin 5′-monophosphate sodium salt] | 441 nm
40 | CN(C)c1ccc(C(=C2C=CC(=[N+](C)C)C=C2)c2ccc(N(C)C)cc2)cc1 [Crystal Violet] | 550-610 nm
41 | Azure B | 580+ nm
42 | O=S(=O)([O-])c1ccc(/N=N/c2cc(S(=O)(=O)[O-])c3ccccc3c2O)c2ccccc12.[Na+].[Na+] [Chromotrope FB] | 512 nm
43 | CCN(Cc1cccc(S(=O)(=O)[O-])c1)c1ccc(C(=C2C=CC(=[N+](CC)Cc3cccc(S(=O)(=O)[O-])c3)C=C2)c2ccc(O)cc2S(=O)(=O)[O-])cc1.[Na+].[Na+] [Fast Green] | 560+ nm
44 | COc1cc(S(=O)(=O)[O-])c(C)cc1N=Nc1c(O)ccc2cc(S(=O)(=O)[O-])ccc12.[Na+].[Na+] [Allura Red AC] | 504 nm
45 | CC(C)=CCC/C(C)=C/C=C/C(C)=C/C=C/C(C)=C/C=C/C=C(C)/C=C/C=C(C)/C=C/C=C(\C)CCC=C(C)C [Lycopene] | 530 nm
46 | Verteporfin | 690 nm
47 | Cc1cc(-c2ccc(/N=N/c3c(S(=O)(=O)O)cc4cc(S(=O)(=O)O)cc(N)c4c3O)c(C)c2)ccc1/N=N/c1c(S(=O)(=O)O)cc2cc(S(=O)(=O)O)cc(N)c2c1O [Trypan Blue] | 500+ nm
48 | Taporfin Sodium | 664 nm
49 | HPPH | 665 nm
50 | CCOC(=O)C1=Cc2c3nc(cc4nc(cc5[n-]c(cc6[n-]c2c(C)c6CC)c(C)c5CC)C(C)=C4CC)[C@@H](C)[C@]13CC.[Cl-].[Cl-].[Sn] [SnEt2 (Purlytin), SnEt2] | 660 nm
51 | O=S(=O)([O-])c1ccc(N=Nc2cc(S(=O)(=O)[O-])c3ccccc3c2O)c2ccccc12.[Na+].[Na+] [Carmoisine azorubine] | 515 nm
52 | Nc1c(/N=N/c2ccc(-c3ccc(/N=N/c4cc(S(=O)(=O)O)c5ccccc5c4N)cc3)cc2)cc(S(=O)(=O)O)c2ccccc12 [Congo Red] | 400-560 nm
53 | Mono-N-Aspartyl Chlorin e6 | 664 nm
54 | Nc1c(O)c(S(=O)(=O)[O-])c(O)c2c1C(=O)c1ccccc1C2=O.[Na+] [Nuclear Fast Red] | 460-550 nm
55 | O=S(=O)([O-])c1cc(S(=O)(=O)[O-])c2c(N=Nc3ccc(S(=O)(=O)[O-])c4ccccc34)c(O)ccc2c1.[Na+].[Na+].[Na+] [New Coccine] | 506 nm
56 | CC1=C(/C=C/C(C)=C/C=C/C(C)=C/C=C/C=C(C)/C=C/C=C(C)/C=C/C2=C(C)CCCC2(C)C)C(C)(C)CCC1 [Beta carotene] | 470 nm

Same assay, conditions: visible light absorption peaks named in text

Row | Molecule | absorption peak
57 | C=Cc1c(C)c2cc3nc(c(CC(=O)O)c4[nH]c(cc5nc(cc1[nH]2)C(C)=C5CC)c(C)c4C(=O)O)[C@@H](CCC(=O)O)[C@@H]3C [Chlorin e6] | 410 nm
58 | Si(IV)-naphthocyanine | 773 nm

Tested on: multi-drug resistant Pseudomonas aeruginosa (Gram −) isolates
Settings: 60 different multi-drug resistant isolates

Row | Molecule | reduction of isolates with PDT
59 | Cc1cc2nc3ccc(N(C)C)cc3[s+]c2cc1N.[Cl-] [Toluidine Blue] | significantly reduced
